Data taken from patent US7579353B2, “Pyridinone derivatives against malaria” (Glaxo Group Limited, priority 2005, dated 2009).

test system: Plasmodium falciparum; test: In vitro anti-malarial activity against Plasmodium falciparum, IC50 assay / [3H]-hypoxanthine incorporation assay; format: cell-based; settings: Erythrocyte, parasitized red blood cells, 48 hours
Protocol: In Vitro Anti-malarial Activity Against Plasmodium falciparum
IC50 Assay/[^3H]-Hypoxanthine Assay
Plasmodium falciparum strains.
The culture medium comprised RPMI 1640 with 25 mM HEPES, sodium bicarbonate and glutamine (GIBCO™ cat. ref.: 52400), supplemented with 10% of pooled human sera AB (Irvine Scientific, cat. ref.: 5009) and HT supplement (0.15 mM hypoxanthine and 24 μM thymidine), (GIBCO™ cat. ref.: 41065). Human sera were decomplemented 30 min. at 56° C., aliquoted and stored frozen at −20° C. until use in this culture medium.
Red blood cells O+ stock suspensions were prepared from whole blood bags coming from incomplete blood donation, provided by the Spanish Red Cross (<25 days after sampling). This “whole blood” was aliquoted and stored at 4° C.
To prepare red blood cells for the assay, the whole blood was centrifuged and washed 3 times with RPMI without serum. The upper phase, containing white blood cells was removed. The washed red blood cells were kept as a 50% suspension in complete medium. The prepared cells were stored at 4° C. and were employed in the assay at any time up to 4 days after preparation.
Test compounds were dissolved at 2 mg/ml in 100% DMSO on the day of the assay. If necessary, complete dissolution was achieved by gentle heating (the mixture was heated at a temperature <37° C.) and sonication (sonication bath).
For IC50 determinations, 10 serial 2-fold dilutions were prepared in complete medium in the presence of a constant amount of DMSO.
Plasmodium falciparum strains were maintained in complete medium at an hematocrit of 5% in continuous culture using a method adapted from Trager and Jensen (1, 2).
The parasitemia was calculated by counting the percentage of parasitized erythrocytes by optical microscopy. Thin films of blood were made every day from each culture flask, fixed with methanol and stained for 10 min. in Giemsa (Merck, cat ref.: 1.09204) at 10% in buffered water pH 7.2. The glass slides were observed and counted with an optical microscope (Nikon, Eclipse E200) equipped with a 100× immersion oil objective.
The culture was maintained at an hematocrit of 5%, with a daily change of medium and was diluted when parasitemia had reached about 5%.
[^3H] Hypoxanthine incorporation assay was conducted using a method adapted from Desjardins et al. (3). The assays were performed in 96 wells flat bottom microplates.
1. Serial dilutions of the test compounds (50 μl of a 5× solution/well) were deposited in duplicate. Compounds of the invention were tested in this assay. Chloroquine and Atovaquone were used as control compounds for each assay.
3. [^3H]-Hypoxanthine (Amersham Biosciences, cat. ref.: TRK74) was added extemporaneously to the inoculum suspension at a concentration of 1 μCi/ml (equating to […]). 200 μl of the resulting suspension was distributed into each well (other than the control well H12 described below) leading to a final volume of 250 μl per well, at 2% of hematocrit and 0.5% of parasitemia/well.
4. In each plate, 2 columns were reserved for control wells: • Column 11: Positive control wells: PRBCs with 0.2% DMSO—(i) to determine DMSO solvent effect on parasite growth (at a final concentration of 0.2%) and (ii) to compare with cultures treated with test compounds. • Column 12 (comprising wells A12-H12): • A12-D12—Background value wells: Uninfected RBCs—blank control to obtain the background reading from RBCs without parasites. • E12-G12—Solvent effect wells: PRBCs without DMSO—to determine DMSO solvent effect on PRBCs by comparing these wells with column 11 wells. • H12-Non-radioactive well: PRBCs with cold hypoxanthine—(i) to carry out a thin blood film to determine parasitemia value after incubation by microscopy and (ii) to ensure that the parasites have grown properly during the assay. (200 μl of inoculum suspension was prepared as described above (Items 2 and 3) but with non-tritiated hypoxanthine instead of [3H]-hypoxanthine, then added to this well to a final volume of 250 μl). […]

IC50, < 0.125 µg/mL:
Cc1[nH]c(C)c(-c2ccc(-c3ccc(OC(F)(F)F)cc3)nc2)c(=O)c1Cl [Example 27, 5-Chloro-2,6-dimethyl-6′-{4-[(trifluoromethyl)oxy]phenyl}-3,3′-bipyridin-4(1H)-one]
Cc1[nH]c(C)c(-c2ccc(-c3cccc(OC(F)(F)F)c3)nc2)c(=O)c1Cl [Example 28, 5-Chloro-2,6-dimethyl-6′-{3-[(trifluoromethyl)oxy]phenyl}-3,3′-bipyridin-4(1H)-one]
Cc1[nH]c(C)c(-c2ccc(-c3ccccc3OC(F)(F)F)nc2)c(=O)c1Cl [Example 29, 5-Chloro-2,6-dimethyl-6′-{2-[(trifluoromethyl)oxy]phenyl}-3,3′-bipyridin-4(1H)-one]
Cc1[nH]c(C)c(-c2ccc(-c3ccc(C(F)(F)F)cc3)nc2)c(=O)c1Cl [Example 30, 5-Chloro-2,6-dimethyl-6′-{4-[trifluoromethyl]phenyl}-3,3′-bipyridin-4(1H)-one]
Cc1[nH]c(C)c(-c2ccc(-c3cccc(C(F)(F)F)c3)nc2)c(=O)c1Cl [Example 31, 5-Chloro-2,6-dimethyl-6′-{3-[trifluoromethyl]phenyl}-3,3′-bipyridin-4(1H)-one]
Cc1[nH]c(C)c(-c2ccc(-c3ccccc3C(F)(F)F)nc2)c(=O)c1Cl [Example 32, 5-Chloro-2,6-dimethyl-6′-{2-[trifluoromethyl]phenyl}-3,3′-bipyridin-4(1H)-one]
Cc1[nH]c(C)c(-c2ccc(-c3ccc(Cl)cc3)nc2)c(=O)c1Cl [Example 33, 5-Chloro-6′-(4-chlorophenyl)-2,6-dimethyl-3,3′-bipyridin-4(1H)-one]
Cc1[nH]c(C)c(-c2ccc(-c3cccc(Cl)c3)nc2)c(=O)c1Cl [Example 34, 5-Chloro-6′-(3-chlorophenyl)-2,6-dimethyl-3,3′-bipyridin-4(1H)-one]
Cc1[nH]c(C)c(-c2ccc(-c3ccccc3Cl)nc2)c(=O)c1Cl [Example 35, 5-Chloro-6′-(2-chlorophenyl)-2,6-dimethyl-3,3′-bipyridin-4(1H)-one]
Cc1[nH]c(C)c(-c2ccc(-c3ccc(OC(F)(F)F)cc3)nc2)c(=O)c1Cl.Cl [Example 38, 5-Chloro-2,6-dimethyl-6′-{4-[(trifluoromethyl)oxy]phenyl}-3,3′-bipyridin-4(1H)-one]
CCCCc1ccc(-c2ccc(-c3c(C)[nH]c(C)c(Br)c3=O)cn2)cc1.Cl [Example 39, 5-Bromo-6′-(4-n-butylphenyl)-2,6-dimethyl-3,3′-bipyridin-4(1H)-one]
Cc1[nH]c(C)c(-c2ccc(C#Cc3ccc(C(F)(F)F)cc3)nc2)c(=O)c1Br [Example 40, 5-Bromo-2,6-dimethyl-6′-{[4-(trifluoromethyl)phenyl]ethynyl}-3,3′-bipyridin-4(1H)-one]
Cc1[nH]c(C)c(-c2ccc(C#Cc3ccc(C(F)(F)F)cc3)nc2)c(=O)c1Cl [Example 41, 5-Chloro-2,6-dimethyl-6′-{[4-(trifluoromethyl)phenyl]ethynyl}-3,3′-bipyridin-4(1H)-one]
Cc1[nH]c(C)c(-c2ccc(CCc3cccc(C(F)(F)F)c3)nc2)c(=O)c1Br [Example 43, 5-Bromo-2,6-dimethyl-6′-{2-[3-(trifluoromethyl)phenyl]ethyl}-3,3′-bipyridin-4(1H)-one]
Cc1[nH]c(C)c(-c2ccc(CCc3ccc(F)cc3F)nc2)c(=O)c1Cl [Example 46, 5-Chloro-6′-{2-[2,4-difluorophenyl]ethyl}-2,6-dimethyl-3,3′-bipyridin-4(1H)-one]
CCCCCCCc1ccc(-c2c(C)[nH]c(C)c(Cl)c2=O)cn1 [Example 47, 5-Chloro-6′-(n-heptyl)-2,6-dimethyl-3,3′-bipyridin-4(1H)-one]
Cc1[nH]c(C)c(-c2ccc(CCc3ccc(C(F)(F)F)cc3)cn2)c(=O)c1Cl [Example 52, 5′-Chloro-2′,6′-dimethyl-5-{2-[4-(trifluoromethyl)phenyl]ethyl}-2,3′-bipyridin-4′(1′H)-one]
Cc1[nH]c(C)c(-c2ccc(-c3ccc4c(c3)OCO4)nc2)c(=O)c1Cl [Example 54]
Cc1[nH]c(C)c(-c2ccc(-c3ccc(C(F)(F)F)cc3Cl)nc2)c(=O)c1Cl [Example 55, 5-chloro-6′-[2-chloro-4-(trifluoromethyl)phenyl]-2,6-dimethyl-3,3′-bipyridin-4(1H)-one]
Cc1[nH]c(C)c(-c2ccc(-c3ccc(OCC(F)(F)F)cc3)nc2)c(=O)c1Cl [Example 62, 5-Chloro-2,6-dimethyl-6′-{4-[2,2,2-trifluoroethoxy]phenyl}-3,3′-bipyridin-4(1H)-one]
Cc1[nH]c(C)c(-c2ccc(-c3ccc(C(F)F)cc3)nc2)c(=O)c1Cl [Example 63, 5-Chloro-2,6-dimethyl-6′-{4-[difluoromethyl]phenyl}-3,3′-bipyridin-4(1H)-one]
Cc1[nH]c(C)c(-c2cnc(-c3ccc(C(F)(F)F)cc3)nc2)c(=O)c1Cl [Example 64, 3-Chloro-2,6-dimethyl-5-(5-(2-(4-trifluoromethylphenyl))pyrimidinyl)pyridin-4(1H)-one]
Cc1[nH]c(C)c(-c2ccc(-c3ccc(N(C)C)c(Br)c3)nc2)c(=O)c1Br [Example 71, 5-Bromo-6′-[3-bromo-4-(dimethylamino)phenyl]-2,6-dimethyl-3,3′-bipyridin-4(1H)one]
